# *1 amine or outer side, *2 acyl side, *3 side chain or, on linkers, in order; H or OH if unused. Where a SMILES comes first, the peptide text is derived from it. Where no end group is shown, it is not given here. [ ]: non-standard residue; d: D form. The star is where a group is joined. X1 = O=C([C@@]1(O)C[C@@H](O)[C@H](N[*:1])C([C@@H](O)[C@@H](O)CO)O1)[*:2]; Trp(1-Me) = Cn1cc(C[C@H](N)C(=O)O)c2ccccc21; NMeW = CN[C@@H](Cc1c[nH]c2ccccc12)C(=O)O; Phe(3-Br) = N[C@@H](Cc1cccc(Br)c1)C(=O)O; Aad = N[C@@H](CCCC(=O)O)C(=O)O; Aoc(2) = CCCCCC[C@H](N)C(=O)O; Nle = CCCC[C@H](N)C(=O)O; Cbz = O=C(OCc1ccccc1)*
# Key:
# [1] = molecular target: T1, CCK-B receptors (CHO-CCK) (Homo sapiens, UniProt P32239); experiment: Calcium flux (Fluo-8) agonist test on CHO-CCK model cells; type: cell-based; settings: for EC50 / % Act-Ave @ 1 nM / % Act-Ave @ 50 nM: CHO-CCK cells; for Agonistic Activity (%) at 10 μM: compound at 10 μM, percentage of signal of 20 nM CCK8 alone; for % Act-Ave @ 1 nM: compound at 1 nM; for % Act-Ave @ 50 nM: compound at 50 nM
# T1 construct: expressed in transfected cells; host or cells: CHO (CHO-CCK model cells)
# T1 sequence (P32239 1-447): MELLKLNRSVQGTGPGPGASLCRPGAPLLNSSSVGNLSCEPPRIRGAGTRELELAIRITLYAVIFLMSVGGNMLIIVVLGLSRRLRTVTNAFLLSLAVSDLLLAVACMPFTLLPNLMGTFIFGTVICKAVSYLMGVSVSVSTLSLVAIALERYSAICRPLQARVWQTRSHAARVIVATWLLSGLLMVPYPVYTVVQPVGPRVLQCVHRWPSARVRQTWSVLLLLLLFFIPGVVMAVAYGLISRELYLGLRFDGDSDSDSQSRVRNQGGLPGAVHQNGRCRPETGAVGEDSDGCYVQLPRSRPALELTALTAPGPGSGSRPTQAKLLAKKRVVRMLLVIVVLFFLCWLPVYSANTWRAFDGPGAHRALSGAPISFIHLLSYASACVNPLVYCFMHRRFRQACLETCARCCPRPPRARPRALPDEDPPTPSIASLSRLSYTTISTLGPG
# Method in brief: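 Agonist-mode Fluo-8 calcium flux read on CHO-CCK cells after dye loading 30 min at 37 °C plus 30 min at room temperature.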
# [2] = molecular target: T1, CCK-B receptors (CHO-CCK); experiment: Calcium flux (Fluo-8) antagonist test on CHO-CCK model cells in presence of CCK8; type: cell-based
# Protocol: The compound was formulated to a 10 mM mother liquor with DMSO, and then diluted into a series of 9 concentrations with a 3-fold gradient to form a 1000× stock solution. […] Prepare 1×Fluo-8 analysis buffer: mix 9 mL of HHBS, 1 mL of 10× Pluronic F127 Plus and 20 μL of Fluo-8 thoroughly for later use. • 3. Add Fluo-8 dye working solution to the cell plate, 100 μL/well. First incubate in a 37° C. incubator for 30 min, and then take it out and incubate at room temperature in the dark for 30 min. • 4. In the process of incubating cells, the compounds to be detected were prepared with HHBS. • 5. […] The agonism/antagonism EC50 of the compound can be obtained by plotting the fitting curve with the agonism/antagonism percentage as Y-axis and the concentration of the compound as X-axis.
# [3] = compound alone, 100% = 20 nM CCK8
# [4] = compound together with 10 nM CCK8
# [5] = Fluo-8 calcium flux, 100% control = 20 nM CCK8
% Act-Ave @ 1 nM [1] [%],% Act-Ave @ 50 nM [1] [%],Compound,other results
,,"CSCC[C@H](NC(=O)[C@H](N)Cc1c[nH]c2ccccc12)C(=O)N[C@@H](CC(=O)O)C(=O)N[C@@H](Cc1ccccc1[N+](=O)[O-])C(N)=O [HT-24, D-Trp-Met-Asp-Phe(2-NO2)-NH2]","EC50 [1, 3]: 0.206 µM; Agonistic Activity (%) at 10 μM [1]: 50.60%; EC50 [2, 4]: 0.624 µM"
,,"CSCC[C@H](NC(=O)[C@H](N)Cc1c[nH]c2ccccc12)C(=O)N[C@@H](CC(=O)O)C(=O)N[C@@H](Cc1ccccc1F)C(N)=O [HT-25, D-Trp-Met-Asp-Phe(2-F)-NH2]","EC50 [1, 3]: 0.225 µM; Agonistic Activity (%) at 10 μM [1]: 89.41%; EC50 [2, 4]: 0.603 µM"
,,"CSCC[C@H](NC(=O)[C@H](N)Cc1c[nH]c2ccccc12)C(=O)N[C@@H](CC(=O)O)C(=O)N[C@@H](Cc1cccc(Cl)c1)C(N)=O [HT-26, D-Trp-Met-Asp-Phe(3-Cl)-NH2]","EC50 [1, 3]: 0.0784 µM; Agonistic Activity (%) at 10 μM [1]: 85.75%; EC50 [2, 4]: 0.635 µM"
,,"CSCC[C@H](NC(=O)[C@H](Cc1c[nH]c2ccccc12)NC(C)=O)C(=O)N[C@@H](CC(=O)O)C(=O)N[C@@H](CCC(=O)O)C(N)=O [HT-197, Ac-Trp-Met-Asp-Gln-NH2]",EC50 ([2]; in presence of 10 nM CCK8): 1.67 µM
40.66,104.56,"CCCC[C@H](NC(=O)[C@H](Cc1c[nH]c2ccccc12)N(C)C(C)=O)C(=O)N[C@@H](CCCC(=O)O)C(=O)N[C@@H](Cc1cccc(Br)c1)C(N)=O [HT-271, Ac-Trp-Nle-Aa-Phe(3-Br)-NH2] (Ac-[NMeW][Nle][Aad][Phe(3-Br)]-NH2)",
−0.33,86.09,"CCCC[C@H](NC(=O)[C@H](Cc1c[nH]c2ccccc12)N(C)C(C)=O)C(=O)N[C@@H](CCCC(=O)O)C(=O)N[C@@H](Cc1cccc(Br)c1)C(N)=O [HT-272, Ac-(N-Me-Trp)-Nle-Aa-Phe(3-Br)-NH2] (Ac-[NMeW][Nle][Aad][Phe(3-Br)]-NH2)",
52.14,96.54,"CCCC[C@H](NC(=O)[C@H](Cc1c[nH]c2ccccc12)N(C)C(C)=O)C(=O)N[C@@H](CC(=O)O)C(=O)N[C@@H](Cc1cccc(Br)c1)C(N)=O [HT-273, Ac-(N-Me-Trp)-Nle-Asp-Phe(3-Br)-NH2] (Ac-[NMeW][Nle]D[Phe(3-Br)]-NH2)",
62.28,100.24,"CCCC[C@H](NC(=O)[C@H](Cc1c[nH]c2ccccc12)N(C)C(=O)[C@@]1(O)C[C@@H](O)[C@H](NC(C)=O)C([C@@H](O)[C@@H](O)CO)O1)C(=O)N[C@@H](CCCC(=O)O)C(=O)N[C@@H](Cc1cccc(Br)c1)C(N)=O (stereo partly drawn) [HT-275, Trp)-Nle-Aa-Phe(3-Br)-NH2] (Ac-[X1][NMeW][Nle][Aad][Phe(3-Br)]-NH2)",
−0.13,13.46,"CCCC[C@H](NC(=O)[C@H](Cc1c[nH]c2ccccc12)N(C)C(=O)[C@@H](N)CCC(=O)O)C(=O)N[C@@H](CCCC(=O)O)C(=O)N[C@@H](Cc1cccc(Br)c1)C(N)=O [HT-277, Glu-(N-Me-Trp)-Nle-Aa-Phe(3-Br)-NH2] (H-E[NMeW][Nle][Aad][Phe(3-Br)]-NH2)",
−0.19,90.99,"CCCCCC[C@H](NC(=O)[C@H](Cc1cn(C)c2ccccc12)NC(=O)OCc1ccccc1)C(=O)N[C@@H](CC(=O)O)C(=O)N[C@@H](Cc1cccc(Br)c1)C(N)=O [HT-279, Cbz-(1-Me-Trp)-Oa-Asp-Phe(3-Br)-NH2] (Cbz-[Trp(1-Me)][Aoc(2)]D[Phe(3-Br)]-NH2)",
−0.33,−0.16,"CSCC[C@H](NC(C)=O)C(=O)N[C@@H](CC(=O)O)C(=O)N[C@@H](Cc1ccccc1)C(N)=O [HT-280, Ac-Met-Asp-Phe-NH2] (Ac-Met-Asp-Phe-NH2)",
−0.09,0.03,"CCCCCC[C@H](NC(C)=O)C(=O)N[C@@H](CC(=O)O)C(=O)N[C@@H](Cc1cccc(Br)c1)C(N)=O [HT-281, Ac-Oa-Asp-Phe(3-Br)-NH2] (Ac-[Aoc(2)]-Asp-[Phe(3-Br)]-NH2)",
0.13,0.45,"CSCC[C@H](NC(C)=O)C(=O)N[C@@H](CC(=O)O)C(=O)N[C@@H](Cc1cccc(Br)c1)C(N)=O [HT-282, Ac-Met-Asp-Phe(3-Br)-NH2] (Ac-Met-Asp-[Phe(3-Br)]-NH2)",
−0.04,−0.03,"CCCC[C@H](NC(C)=O)C(=O)N[C@@H](CC(=O)O)C(=O)N[C@@H](Cc1cccc(Br)c1)C(N)=O [HT-283, Ac-Nle-Asp-Phe(3-Br)-NH2] (Ac-[Nle]-Asp-[Phe(3-Br)]-NH2)",
0.01,0.09,"CC(=O)N[C@@H](CC(=O)O)C(=O)N[C@@H](Cc1ccccc1)C(N)=O [HT-284, Ac-Asp-Phe-NH2] (Ac-Asp-Phe-NH2)",
,,"C[C@@H](NC(=O)[C@H](Cc1cccc(Br)c1)NC(=O)[C@H](CC(=O)O)NC(=O)[C@H](CCCCN)NC(=O)[C@H](N)Cc1c[nH]c2ccccc12)C(N)=O [HT-288, D-Trp-Lys-Asp-Phe(3-Br)-D-Ala-NH2] (H-[dW]KD[Phe(3-Br)][dA]-NH2)","EC50 ([1]; Fluo-8 calcium flux, bound in μM): > 10 µM"
,,"CC(C)C[C@H](NC(=O)[C@H](N)Cc1c[nH]c2ccccc12)C(=O)N[C@@H](CC(=O)O)C(=O)N[C@@H](Cc1cccc(Br)c1)C(=O)N[C@H](C)C(N)=O [HT-289, D-Trp-Val-Asp-Phe(3-Br)-D-Ala-NH2]","EC50 [1, 5]: 3.19 µM"
,,"CSCC[C@H](NC(=O)[C@H](N)Cc1c[nH]c2ccccc12)C(=O)N[C@@H](CC(=O)O)C(=O)N[C@@H](Cc1cccc(Br)c1)C(=O)N[C@H](C)C(N)=O [HT-290, D-Trp-Met-Asp-Phe(3-Br)-D-Ala-NH2] (H-[dW]MD[Phe(3-Br)][dA]-NH2)","EC50 [1, 5]: 6.68 µM"
,,"CSCC[C@@H]1NC(=O)[C@H](Cc2c[nH]c3ccccc23)NCCC(=O)CNC(=O)CNC(=O)CNC(=O)CNC(=O)[C@H](Cc2cccc(Br)c2)NC(=O)[C@H](CC(=O)O)NC1=O [HT-291, cyclo(Trp-Met-Asp-Phe(3-Br)-Gly-Gly-Gly-Gly)]","EC50 [1, 5]: 10.6 µM"
,,"CSCC[C@H](NC(=O)[C@H](Cc1c[nH]c2ccccc12)NC(=O)[C@@H](C)N)C(=O)N[C@@H](CC(=O)O)C(=O)N[C@@H](Cc1cccc(Br)c1)C(=O)N[C@H](C)C(N)=O [HT-292, D-Ala-Trp-Met-Asp-Phe(3-Br)-D-Ala-NH2] (H-[dA]WMD[Phe(3-Br)][dA]-NH2)","EC50 [1, 5]: 1.45 µM"
77.83,99.10,HHHHHHSSGGDYMGWKDF-NH2 [HT-287],
−0.40,−0.52,HHHHHHSSGGWKDF-NH2 [HT-286],

Compound,% Act-Ave @ 1 nM [1] [%],% Act-Ave @ 50 nM [1] [%],other results
"CCCC[C@H](NC(=O)[C@H](Cc1c[nH]c2ccccc12)N(C)C(=O)[C@@]1(O)C[C@@H](O)[C@H](NC(C)=O)C([C@@H](O)[C@@H](O)CO)O1)C(=O)N[C@@H](CC(=O)O)C(=O)N[C@@H](Cc1cccc(Br)c1)C(N)=O (stereo partly drawn) [HT-274, Sia-(N-Me-Trp)-Nle Asp-Phe(3-Br)-NH2] (Ac-[X1][NMeW][Nle]D[Phe(3-Br)]-NH2)",0.10,72.88,
"CCCC[C@H](NC(=O)[C@H](Cc1c[nH]c2ccccc12)N(C)C(=O)[C@@]1(O)C[C@@H](O)[C@H](NC(C)=O)C([C@@H](O)[C@@H](O)CO)O1)C(=O)N[C@@H](CC(=O)O)C(=O)N[C@@H](Cc1cccc(Br)c1)C(N)=O (stereo partly drawn) [HT-278, Sia-(N-Me-Trp)-Nle-Asp-Phe(3-Br)-NH2] (Ac-[X1][NMeW][Nle]D[Phe(3-Br)]-NH2)",40.85,93.12,

# Source: patent publication US20240415918A1, “Polypeptide and its use as a CCK receptor agonist/antagonist” (Centre for Regenerative Medicine & Health, Hong Kong …, priority 2021, published 2024)
